Columns and labels:
Spaeroph. freundii = experiment: Anerobic antibacterial assay (agar dilution, Wilkins-Chalgren agar); assay type: cell-based; settings: Spaeroph. freundii 1369; anaerobic; 48 hours at 37° C.
Bact. fragilis = experiment: as above; assay type: cell-based; settings: anaerobic, 48 hours at 37° C.
Bact. thetaiotaom. = experiment: as above; assay type: cell-based; settings: anaerobic, 48 hours at 37° C.
Microsporum Canis = experiment: Antifungal assay (microtitration technique); assay type: cell-based; settings: Microsporum Canis strain 150/353; 5 days at 30° C.
Procedure: (§1) The microtiter plate is prepared as follows: The wells are each filled (2 rows/strain) with 50 μl neopeptone-dextrose broth (12-channel pipette). In addition, one row/strain is coated with 50 μl yeast-nitrogen base/well for yeasts and moulds. […] All wells are then inoculated with 150 μl standardized organism suspension (yeasts: 1×10^3 organisms/ml suspension; cutaneous fungi and moulds: 1.6×10^5 organisms/ml suspension); the total volume is 200 μl per well. There is also a growth control (inoculated, not medicated), a solvent control (inoculated, not medicated, containing solvent as in medicated rows) and a negative control (not inoculated, not medicated). Incubation for 5 days at 30° C. is followed by photometric evaluation. The obtained measurements are checked visually (macroscopically and microscopically) and corrected where necessary. Criteria for Evaluation of the Antimycotic Effect a. Photometric measurements (matrix method) b. Growth, macroscopic evaluation c. Growth, microscopic evaluation (inversion light microscope, magn. 64×).

Candida Albicans = experiment: Antifungal assay (microtitration technique); assay type: cell-based; settings: Candida Albicans strain 200/175; 5 days at 30° C.
Procedure: as §1

[1] = test system: Trichophyton Mentagrophytes; experiment: Antifungal assay (microtitration technique); assay type: cell-based; settings: Trichophyton Mentagrophytes strain 100/25; 5 days at 30° C.
Procedure: as §1

Trichophyton Rubrum = experiment: Antifungal assay (microtitration technique); assay type: cell-based; settings: Trichophyton Rubrum strain 101/85; 5 days at 30° C.
Procedure: as §1

Aspergillus Niger = experiment: Antifungal assay (microtitration technique); assay type: cell-based; settings: Aspergillus Niger strain 500/284; 5 days at 30° C.
Procedure: as §1

Trichophyton Vaginalis = experiment: Antifungal assay (microtitration technique); assay type: cell-based; settings: Trichophyton Vaginalis strain 111/216; 5 days at 30° C.
Procedure: as §1

Bact. vulgatus = experiment: Anerobic antibacterial assay (agar dilution, Wilkins-Chalgren agar); assay type: cell-based; settings: Bact. vulgatus 1446; anaerobic; 48 hours at 37° C.
[2] = test system: female Swiss Webster mice; experiment: TPA-induced ear edema assay; assay type: in vivo; settings: 10 μg/ear topical, after about 5 hours
Procedure: In the TPA-induced ear edema assay, TPA (12-O-tetradecanoylphorbol-13-acetate) was dissolved in 30/70 propylene glycol/ethanol and was applied to the right ear of groups of 6 female Swiss Webster mice, which were housed together in a cage under standard conditions for 1 week prior to use with food and water ad lib, at a volume of 20 μl so that a total of 10 μg of TPA is delivered to the inner and outer surfaces of the ear. The test compound was dissolved in the vehicle and was applied to the right ear (the inner and outer surface) at a volume of 20 μl so that a total of 10 μg of the compound was delivered to the ear. After about 5 hours, the animals were sacrificed, a 4 mm diameter plug was taken from each ear and weighed. The difference between the right and left ear plug weights for each animal was determined. The antiinflammatory activity of the test compound is expressed as the mean percent change in the ear plug weight of the treated animals compared to the mean percent change in the plug weight of the control animals.

Peptostr. anaerobius = experiment: Anerobic antibacterial assay (agar dilution, Wilkins-Chalgren agar); assay type: cell-based; settings: Peptostr. anaerobius 932; anaerobic; 48 hours at 37° C.
Propionibact. acnes = experiment: as above; assay type: cell-based; settings: anaerobic, 48 hours at 37° C.
Clost. tetani = experiment: as above; assay type: cell-based; settings: Clost. tetani 19406; anaerobic; 48 hours at 37° C.
Bact. ovatus = experiment: as above; assay type: cell-based; settings: Bact. ovatus 103; anaerobic; 48 hours at 37° C.
Fusobact. varium = experiment: as above; assay type: cell-based; settings: anaerobic, 48 hours at 37° C.
Bact. distasonis = experiment: as above; assay type: cell-based; settings: Bact. distasonis 1366; anaerobic; 48 hours at 37° C.
Clost. perfringens = experiment: microbe, parasite or virus in culture; assay type: cell-based; settings: Clost. perfringens 194; anaerobic; 48 hours at 37° C.
E. cloacae = experiment: Aerobic antibacterial assay (agar dilution, Mueller-Hinton agar); settings: E. cloacae 1321E; aerobic; 24 hours at 37° C.
[3] = test system: female Swiss Webster mice; experiment: Arachidonic acid-induced ear edema assay; assay type: in vivo; settings: 1 mg/ear topical, arachidonic acid 4 mg/ear
Procedure: In the arachidonic acid-induced ear edema assay, the test compound was dissolved in 30/70 propylene glycol/ethanol and was applied to both ears of groups of 6 female Swiss Webster mice, which were housed together in a cage under standard conditions for 1 week prior to use with food and water ad lib, at a volume of 20 μl so that a total of 1.0 mg of test compound was delivered to each ear over the inner and outer surfaces. The same volume (20 μl) of vehicle was applied to each ear of a control group of mice. After 30 minutes, arachidonic acid was applied to the right ear of each mouse of each group in the amount of 4 mg/ear. Vehicle was applied to the left ear of each mouse of each group at a volume of 20 μl/ear. After an additional hour, the mice were sacrificed and a 4 mm plug was taken from each ear and weighed. The difference between the right and left ear plugs was determined for each animal. The antiinflammatory activity of the test compound is expressed as the mean percent change in the ear plug weight of the treated animals relative to the mean percent change in weights of control animals' ear. Antiinflammatory activity of representative compounds of the present invention as determined in this assay are presented below in Table 3.

Strept. pyogenes = experiment: Aerobic antibacterial assay (agar dilution, Mueller-Hinton agar); settings: Strept. pyogenes 77 A; aerobic; 24 hours at 37° C.
Protein kinase C = Protein kinase C assay (32P incorporation into Type III histone); assay type: biochemical, rat; settings: rat brain protein kinase C; phosphatidylserine/diacylglycerol stimulated; read-out: Protein Kinase Inhibitory Activity IC50
Procedure: (see U. Kikkawa, et al., Biochemical and Biophysical Research Communications, 135, 636 (1986) and R. M. Bell, et al. “Methods in Enzymology, Hormone Action,” Part J, P.M. Conn, Ed., Academic Press, Inc., New York, N.Y. 1986, page 353). Protein kinase C enzyme extract was prepared from the brain of male Wistar rats weighing 180 to 200 g and purified by the method of U. Kikkawa, et al., ibid. 636. The purified extract was stored at −80° C., and aliquots were used in the protein kinase C assay performed by a modification of the method of R. M. Bell, et al., ibid. al 354. To perform the assay, duplicate aliquots of duplicate samples are employed. Basal or unstimulated protein kinase C, phosphatidylserine/diacylglycerol stimulated protein kinase C, and test samples are run in each assay. […] The assay tubes were allowed to warm to 25° C. and an 8 μl mixture of adenosine 5′-triphosphate (100 μM) and ^32P-adenosine triphosphate (1 to 2×10^5 counts per minute) was added to each tube for a final volume of 80 μl per tube. After 2 min, the reaction (the incorporation of phosphorous into Type III histone) was terminated by spotting the assay mixture on phosphocellulose paper. The spots are cut out of the paper and the radioactivity (counts per min) of each spot was determined in a scintillation counter.

Klebsiella spp. = experiment: Aerobic antibacterial assay (agar dilution, Mueller-Hinton agar); settings: Klebsiella spp. 1522E; aerobic; 24 hours at 37° C.

## CCCCCCCCCCC#Cc1cccc([C@@H](O)[C@H](CO)NC(C)=O)n1 [erythro-N-{1-[6-(1-Dodecynyl)-2-pyridinyl]-1,3-dihydroxy-2-propanyl}acetamide]
Spaeroph. freundii
  Antibacterial activity (MIC, mg/l): 3.13 mg/L
Bact. fragilis; Bact. fragilis 312
  Antibacterial activity (MIC, mg/l): 3.13 mg/L
Bact. fragilis; Bact. fragilis 960
  Antibacterial activity (MIC, mg/l): 3.13 mg/L
Bact. fragilis; Bact. fragilis 1313
  Antibacterial activity (MIC, mg/l): 6.25 mg/L
Bact. fragilis; Bact. fragilis 17390
  Antibacterial activity (MIC, mg/l): 6.25 mg/L
Bact. fragilis; Bact. fragilis 18125
  Antibacterial activity (MIC, mg/l): 3.13 mg/L
Bact. fragilis; Bact. fragilis 19016
  Antibacterial activity (MIC, mg/l): 6.25 mg/L
Bact. thetaiotaom.; Bact. thetaiotaom. 123
  Antibacterial activity (MIC, mg/l): 3.13 mg/L
Bact. thetaiotaom.; Bact. thetaiotaom. 1428
  Antibacterial activity (MIC, mg/l): 6.25 mg/L
Bact. thetaiotaom.; Bact. thetaiotaom. 1445
  Antibacterial activity (MIC, mg/l): 6.25 mg/L
Microsporum Canis
  Antifungal Activity MIC: 0.970 µg/mL
Candida Albicans
  Antifungal Activity MIC: 125.000 µg/mL
[1]
  Antifungal Activity MIC: 7.810 µg/mL
Trichophyton Rubrum
  Antifungal Activity MIC: 31.250 µg/mL
Aspergillus Niger
  Antifungal Activity MIC: 125.000 µg/mL
Trichophyton Vaginalis
  Antifungal Activity MIC: 15.625 µg/mL
Bact. vulgatus
  Antibacterial activity (MIC, mg/l): 3.13 mg/L
[2]
  Antiinflammatory Activity Percent Decrease in Ear Plug Weight at 10 μg/ear: 59%
Peptostr. anaerobius
  Antibacterial activity (MIC, mg/l): 6.25 mg/L
Propionibact. acnes; Propionibact. acnes 6919
  Antibacterial activity (MIC, mg/l): 6.25 mg/L
Propionibact. acnes; Propionibact. acnes 6922
  Antibacterial activity (MIC, mg/l): 6.25 mg/L
Clost. tetani
  Antibacterial activity (MIC, mg/l): 12.50 mg/L
Bact. ovatus
  Antibacterial activity (MIC, mg/l): 3.13 mg/L
Fusobact. varium; Fusobact. varium 3085
  Antibacterial activity (MIC, mg/l): 6.25 mg/L
Fusobact. varium; Fusobact. varium 5262
  Antibacterial activity (MIC, mg/l): 6.25 mg/L
Bact. distasonis
  Antibacterial activity (MIC, mg/l): 6.25 mg/L
Clost. perfringens
  Antibacterial activity (MIC, mg/l): 12.00 mg/L

## CCCCCCCCCCc1cccc(C(O)C(N)CO)n1 (stereo not drawn) [erythro-2-amino-1-(6-decyl-2-pyridinyl)-1,3-dihydroxypropane]
E. cloacae
  Antibacterial activity (MIC, mg/l): 12.50 mg/L
[3]
  Antiinflammatory Activity Percent Decrease in Ear Plug Weight at 1 mg/ear: 32%
Strept. pyogenes
  Antibacterial activity (MIC, mg/l): 6.25 mg/L
Protein kinase C
  IC50: 48 µM
[2]
  Antiinflammatory Activity Percent Decrease in Ear Plug Weight at 10 μg/ear: 66%
Propionibact. acnes; Propionibact. acnes 6922
  Antibacterial activity (MIC, mg/l): 12.50 mg/L
Fusobact. varium; Fusobact. varium 3085
  Antibacterial activity (MIC, mg/l): 12.50 mg/L
Klebsiella spp.
  Antibacterial activity (MIC, mg/l): 12.50 mg/L

Source: patent publication US6500849B1, “1-alkyl-, 1-alkenyl-, and 1-alkynylaryl-2-amino 1,3-propanediols and related compounds” (Aventis Pharmaceuticals Inc., priority 1990, dated 2002)
